Test results: patent US20050220779A1, “Integrin linked kinase modulation of macrophage activation” (priority 2001, published 2005)

Key:
COX-2 = COX-2 protein expression in LPS-IFN-γ stimulated macrophages (western blot); type: cell-based, murine; settings: Macrophages, LPS-INF-γ stimulated
Protocol: (§1) Western blot analysis. After incubation with the indicated stimuli in the presence of ILK inhibitors, cells (duplicate samples, 2×10^6cell/6-wells plate) were washed in PBS and lysed on ice in 60 μl of lysis buffer. The protein content of each sample was determined using the Bradford protein assay kit (Bio-Rad, Richmond, Calif.). Absorbance was measured at 750 nm with a Beckman DU530 spectrophotometer (Palo Alto, Calif.). Proteins were mixed with 45×SDS sample buffer. Following separation of proteins by SDS-PAGE, using 8% bis-acrylamide in the separation gel, the proteins were transferred from the gels onto PVDF membranes using a MiniProtean III Cell (Bio-Rad), at 100 V for 1.5 h. Equal amounts of protein (5 μg) were loaded onto SDS-PAGE gels and examined by Western blot analysis with anti-Actin, anti-iNOS, anti-COX-2 murine monoclonal antibodies according to the manufacturers specifications (Transduction Laboratories). […] The Multi-Analyst/PC system from Biorad is being used to quantitate the bands of the expressed protein on the film. […] White light is chosen as the selected light source, thus the signal strength is measured in OD (optic density) units. […]
(§2) Effects of ILK inhibitors on the LPS-IFN-γ-induced iNOS and COX-2 expression NO production requires that iNOS be enzymatically activity, therefore experiments were performed to examine whether the inhibitory effect of ILK inhibitors was mediated by […] iNOS protein synthesis or effects on the activity of existing enzyme. Stimulated cells were treated with ILK inhibitors (25 μM), and lysed 16 h later and a western blot analysis was performed to quantitate iNOS protein expression. […]
Nitric oxide and Prostaglandin E2 are two pleiotropic mediators produced at inflammatory sites by the inducible enzymes iNOS and cyclooxygenase-2 (COX-2), respectively. […] Finally, we evaluated the in-vitro effects of compounds on production of MCP-1 chemokine by TNF-α stimulated HUVEC cells. […]

iNOS = iNOS protein expression in LPS-IFN-γ stimulated macrophages (western blot); type: cell-based, murine; settings: Macrophages, LPS-INF-γ stimulated
Protocol: as §1, with “Laboratories). Primary Abs, in 5% blocking buffer (5% NFM/TTBS), were incubated with blots 2 h or overnight at 4° C., followed by incubation with peroxidase-conjugated secondary antibody. Chemiluminescence substrates were used to reveal positive bands. The bands were exposed on x-ray films.” for “Laboratories).”
as §2

[1] = test system: LPS-IFN-γ stimulated macrophages; test: NO production of LPS-IFN-γ stimulated macrophages (cell type not specified; dose response, Table 2 and second Table 3); type: cell-based, murine; settings: LPS-INF-γ stimulated
Protocol: (§3) Treatment of primary macrophages and RAW 264.7 cells. […] Following 3 h incubation, at 37 C, 5% CO2 (macrophages were allowed to attach) cells were stimulated with LPS (0.5 μg/ml) and IFN-γ (100 U/ml) in the absence or presence of various concentrations of ILK inhibitors (all treatments were replicated six times). Cells were incubated for an additional 24 h, and cell free culture supernatants from each well were collected for NO and cytokine determination. The remaining cells were stained with crystal violet to determine effect of the inhibitors on cell survival.
(§4) NO production. Following stimulation, the production of NO was determined by assaying culture supernatants for NO2^−, a stable reaction product of NO with molecular oxygen. Briefly, 100 μl of culture supernatant was reacted with an equal volume of Griess reagent at room temperature for 10 min. The absorbance at 550 nm was determined. All measurements were performed six times. The concentration of NO2^−was calculated by comparison with a standard curve prepared using NaNO2.

[2] = test system: IL-6 release in macrophages; test: LPS-IFN-γ-induced IL-6 release in macrophages (ELISA); type: cell-based, murine
Protocol: (§5) Treatment of primary macrophages and RAW 264.7 cells. Primary macrophages (1.5×10^5 cells/well) and RAW 264.7 (4×10^4 cells/well) cells were grown in 96-well plates (nitrite assay), or 6-well plates (2×10^6 cells/well) for measurement of iNOS and COX-2 expression. Following 3 h incubation, at 37 C, 5% CO2 (macrophages were allowed to attach) cells were stimulated with LPS (0.5 μg/ml) and IFN-γ (100 U/ml) in the absence or presence of various concentrations of ILK inhibitors (all treatments were replicated six times). Cells were incubated for an additional 24 h, and cell free culture supernatants from each well were collected for NO and cytokine determination. The remaining cells were stained with crystal violet to determine effect of the inhibitors on cell survival.
Enzyme immunoassays for mouse IL-6. IL-6 levels were determined with PharMingen's OptElA ELISA set developed using an anti-mouse IL-6 Ab pair and mouse rIL-6 standard (PharMingen). Maxisorp F16 multiwell strips (Nunc, Roskilde, Denmark) were coated with anti-mouse IL-6 capture Ab (at recommended concentration) in 0.1 M NaHCO3, pH 9.5, 100 μl/well, overnight at 4° C. Plates were washed three times with 0.05% Tween 20 in PBS (PBST) and blocked for 1 h at room temperature with 200 μl/well of 10% FCS in PBS (blocking and dilution buffer). […] Absorbance was read at 450 nm with an EL 312e microplate reader. […]

[3] = test system: C57BL/6 cells (primary peritoneal macrophages); test: LPS-IFN-γ-induced macrophage NO production (Griess nitrite assay), C57BL/6 cells; type: cell-based, mouse
Protocol: (§6) Isolation of primary mouse macrophages. Peritoneal exudate macrophages were isolated by peritoneal lavage with ice-cold sterile physiological saline 24 h after intraperitoneal injection of BALB/c and CB57BL/6 mice with 0.3 ml of sterile Zymosan A (1 mg/0.5 ml 0.9% saline). Cells were washed, resuspended in RPMI 1640 supplemented with 2 mM L-glutamine, 100 units/ml penicillin, 100 μg/ml streptomycin, and 5% FBS.
as §5, §4
(§7) Effects of ILK inhibitors on LPS-IFN-γ-induced NO release. […] […] To compare the effect of the compounds across three different cell types, the NO release for each cell type was expressed relative to DMSO treated cells. […] For example, macrophages from Balb/c and C57BL/6 mice responded similarly to the treatment with the compounds.

RAW 264.7 cells [4] = test: LPS-IFN-γ-induced macrophage NO production (Griess nitrite assay), RAW 264.7 cells; type: cell-based, murine
Protocol: RAW 264.7 cells. RAW 264.7 cells, a murine macrophage cell line, were obtained from American Type Culture Collection (ATCC, Manassas, Va.) and cultured in DMEM supplemented with 10% FCS. Each treatment was performed in triplicate wells. RAW 264.7 cells (Balb/c background) produce a significant amount of nitric oxide upon treatment with IFN-γ alone, but require LPS for full activation. This property makes their behavior more like that of normal macrophages obtained from commonly used strains of mice.
as §3, §4
Effects of ILK inhibitors on LPS-IFN-γ-induced NO release. […] […] To compare the effect of the compounds across three different cell types, the NO release for each cell type was expressed relative to DMSO treated cells.

[5] = test system: C57BL/6 cells (primary peritoneal macrophages); test: Cell survival by crystal violet staining, C57BL/6 cells; type: cell-based
Protocol: as §3
(§8) Effect of ILK Inhibitors on suppression of NO production and cell survival. Twenty-four hours following treatment with the ILK inhibitors, aliquots from the cell-free supernatants were assayed for NO and IL-6 release. Surviving cells were stained and fixed (crystal violet 0.05% in 20% ethanol), to determine if the decrease in NO production was related to a decrease in cell number due to toxicity of the compounds.

[6] = test system: BALB/c cells (primary peritoneal macrophages); test: Cell survival by crystal violet staining, BALB/c cells; type: cell-based; settings: BALB/c cells
Protocol: as §3, §8

RAW 264.7 cells [7] = test: Cell survival by crystal violet staining, RAW 264.7 cells; type: cell-based
Protocol: as §5
as §8, with “compounds. […] Only those compounds that induced strong inhibition of NO release, and caused no significant cell death were selected for further evaluation.” for “compounds.”

[8] = test system: BALB/c cells (primary peritoneal macrophages); test: LPS-IFN-γ-induced macrophage NO production (Griess nitrite assay), BALB/c cells; type: cell-based, mouse
Protocol: as §6, §5, §4, §7

HUVEC cells = test: In vitro Matrigel morphogenesis (tube formation) assay of VEGF stimulated HUVEC cells; type: cell-based, human; settings: 100 mM (so in the source)
Protocol: In Vitro Angiogenesis. […] After 5 hours of incubation in a 5% CO2-humidified atmosphere at 37 °C, the three-dimensional organization of the cells was examined using an inverted photomicroscope. The cells were fixed with Crystal Violet (0.05% in 20% ethanol) and digitally photographed.
To determine the anti-angiogenic properties of ILK inhibitors, an in vitro Matrigel morphogenesis assay was established. This assay evaluates the ability of endothelial cells to differentiate into capillary-like structures, a crucial step during neovascularization. HUVEC cells when stimulated with VEGF and seeded onto Matrigel rapidly attach to the matrix and begin to migrate and interact with the extracellular matrix proteins present in the Matrigel. […] These capillary-like structures can be assessed by histology (FIG. 2). Samples are cut on a cross section and subsequent viewed using an electron microscope. Typically, cylindrical formations with a lumen are observed. A distinct difference in the morphology of tube formation on Matrigel, compared to other in vitro angiogenesis assays is a reduction in the proliferation of endothelial cells. […] Using this model system, both inhibitors and stimulators of angiogenesis can be assessed prior to in vivo testing.
The assay was established and reproducibility confirmed. SU5416, shown to inhibit angiogenesis in other assays, was also evaluated. […]

Row | Compound | NO inhibition (%) ([3]; 0.5 mM) | NO release (%) ([3]; 0.5 mM) | NO inhibition (%) ([3]; 1 mM) | NO release (%) ([3]; 1 mM) | NO inhibition (%) (RAW 264.7 cells [4]; 0.5 mM) | NO release (%) (RAW 264.7 cells [4]; 0.5 mM) | NO inhibition (%) (RAW 264.7 cells [4]; 1 mM) | NO release (%) (RAW 264.7 cells [4]; 1 mM) | Survival (%) ([5]; 0.5 mM) | Survival (%) ([5]; 1 mM) | Survival (%) ([6]; 0.5 mM) | Survival (%) ([6]; 1 mM) | Survival (%) (RAW 264.7 cells [7]; 0.5 mM) | Survival (%) (RAW 264.7 cells [7]; 1 mM) | NO inhibition (%) ([8]; 0.5 mM) | NO release (%) ([8]; 0.5 mM) | NO inhibition (%) ([8]; 1 mM) | NO release (%) ([8]; 1 mM) | also measured
1 | NC1=NN=C(N)C1/N=N/c1ccc(F)c(C(F)(F)F)c1 [4-[(4-fluoro-3-trifluoromethylphenyl)hydrazono]-4H-pyrazole-3,5-diamine] | – | – | – | – | – | – | – | – | – | – | – | – | – | – | – | – | – | – | COX-2 (%) (COX-2): 67%; INOS (%) (iNOS): 88%; NO (%) [1]: 74%; inhibition at 25 µM ([2]; Mus musculus, Macrophage, 25 μM, 24 h, LPS (0.5 μg) IFN-γ (100 U)): 63%
2 | C[C@@H]1C[C@H]2[C@@H]3CCC4=CC(=O)C=C[C@]4(C)[C@@]3(F)[C@@H](O)C[C@]2(C)[C@@]1(O)C(=O)CO [Dex, Dexamethasone] | 32% | 67.9% | 53% | 46.6% | −6% | 103.6% | −9% | 87.1% | 87% | 68% | 84% | 73% | 98% | 80% | 28% | 60.6% | 36% | 46.7% | –
3 | CNC(=N)NCCC[C@H](N)C(=O)O [L-NMMA, N^G-Monomethyl-L-arginine] | 92% | 8.3% | 99% | 1.1% | 52% | 44.2% | 63% | 31.7% | 97% | 99% | 97% | 94% | 92% | 86% | 92% | 7.9% | 97% | 3.1% | –
4 | Cc1cc(C)c(/C=C2\C(=O)Nc3ccccc32)[nH]1 [SU5146, reference compound] | – | – | – | – | – | – | – | – | – | – | – | – | – | – | – | – | – | – | Effect on endothelial cell morphogenesis (in words) (HUVEC cells): did not affect endothelial cell morphogenesis
5 | C[C@]12CCC(=O)C=C1CC[C@@H]1[C@@H]2[C@@H](O)C[C@@]2(C)[C@H]1CC[C@]2(O)C(=O)CO [hydrocortisone, Hydrocortisone, reference compound] | – | – | – | – | – | – | – | – | – | – | – | – | – | – | – | – | – | – | Effect on IL-6 release (in words) ([2]; 50 μM, added at the onset of the culture): moderately suppressed IL-6 release
